# Data published in the supplement of paper PMC10307832.
# Key:
# Assay in all cases: relative viability (nuclei count vs DMSO), 5 days (fraction); higher = more cells survive
# Sulindac + Crizotinib = compound: CC1=C(CC(=O)O)c2cc(F)ccc2/C1=C\c1ccc([S+](C)[O-])cc1 [Sulindac] + C[C@@H](Oc1cc(-c2cnn(C3CCNCC3)c2)cnc1N)c1c(Cl)ccc(F)c1Cl [Crizotinib] (partner 1 µM)
# In short: (§1)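 Relative viability was taken as the ratio of nuclei in treated wells to nuclei in vehicle wells. Lung cancer cell lines in 1536-well plates received compounds by pin tool one day after seeding, either one drug alone or a fixed anchor-drug dose plus five library-drug doses (not always all listed) in √10 steps. Nuclei were counted on 4× images after 5 days of treatment, and values are medians of duplicate plates.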
# [1] = compound: CN[C@@H]1C[C@H]2O[C@@](C)([C@@H]1OC)n1c3ccccc3c3c4c(c5c6ccccc6n2c5c31)C(=O)NC4 [Staurosporine] + Nc1ncn([C@H]2C[C@H](O)[C@@H](CO)O2)c(=O)n1 [Decitabine] (partner 2 µM)
# In short: as §1
# [2] = compound: O=c1[nH]cc(F)c(=O)[nH]1 [5-Fluorouracil] + CCNC(=O)c1noc(-c2cc(C(C)C)c(O)cc2O)c1-c1ccc(CN2CCOCC2)cc1 [Luminespib] (partner 0.01 µM)
# In short: as §1
# Sulindac + Bortezomib = compound: CC1=C(CC(=O)O)c2cc(F)ccc2/C1=C\c1ccc([S+](C)[O-])cc1 [Sulindac] + CC(C)C[C@H](NC(=O)[C@H](Cc1ccccc1)NC(=O)c1cnccn1)B(O)O [Bortezomib] (partner 0.002 µM)
# In short: as §1
Cell Line,relative viability (Sulindac + Crizotinib; first compound 0.08 µM),relative viability (Sulindac + Crizotinib; first compound 0.253 µM),relative viability (Sulindac + Crizotinib; first compound 0.8 µM),relative viability (Sulindac + Crizotinib; first compound 2.53 µM),relative viability (Sulindac + Crizotinib; first compound 8 µM),relative viability ([1]; first compound 0.005 µM),relative viability ([1]; first compound 0.05 µM),relative viability ([1]; first compound 0.1581 µM),relative viability ([1]; first compound 0.5 µM),relative viability ([2]; first compound 0.02 µM),relative viability ([2]; first compound 0.2 µM),relative viability ([2]; first compound 0.6325 µM),relative viability ([2]; first compound 2 µM),relative viability (Sulindac + Bortezomib; first compound 0.08 µM),relative viability (Sulindac + Bortezomib; first compound 0.253 µM),relative viability (Sulindac + Bortezomib; first compound 0.8 µM),relative viability (Sulindac + Bortezomib; first compound 2.53 µM),relative viability (Sulindac + Bortezomib; first compound 8 µM),relative viability ([1]; first compound 0.01581 µM)
NCI-H2170,1.21,1.21,0.771,1.2,1.23,0.492,0.431,0.354,0.229,0.507,0.541,0.503,0.3,–,–,–,–,–,–
HCC-366,0.378,0.599,0.446,0.497,0.729,0.348,0.116,0.0285,0.0403,–,–,–,–,1.9,1.06,0.306,1,1.33,–
NCI-H2405,0.907,0.899,0.701,0.85,0.939,0.516,0.119,0.107,0.0998,0.707,0.786,0.676,0.693,1.01,1.01,0.888,0.96,1.06,0.161
COR-L 105,0.957,0.901,0.759,0.776,0.911,0.603,0.381,0.332,0.229,0.638,0.909,0.685,0.439,0.819,0.939,0.626,0.724,1.09,0.44
201T,0.954,1.03,1.08,1.01,1.13,0.884,0.787,0.649,0.672,1.03,0.809,0.352,0.301,1.12,1.1,1.06,1.12,1.08,–
NCI-H2228,0.504,0.47,0.519,0.475,0.479,–,–,–,–,0.158,0.156,0.145,0.18,1.31,1.02,0.45,1.31,1.01,–
LC-2-ad,0.423,0.516,0.404,0.46,0.466,0.765,0.623,0.167,0.166,1.09,0.666,0.407,0.337,1.31,0.992,0.969,0.97,1.12,0.695
NCI-H2087,1.08,0.882,0.739,1.03,0.85,0.28,0.094,0.0598,0.0694,0.168,0.162,0.16,0.142,1.17,0.835,0.695,0.892,1.09,0.141
NCI-H358,0.475,0.52,0.596,0.497,0.746,0.244,0.121,0.0796,0.0666,0.388,0.307,0.308,0.145,–,–,–,–,–,0.213
H3255,0.829,1.04,0.891,0.917,1.05,0.53,0.189,0.162,0.117,0.945,1,0.83,0.741,0.714,0.684,0.735,0.891,0.916,0.404
NCI-H23,0.39,0.643,0.359,0.689,0.504,0.309,0.203,0.163,0.161,0.201,0.205,0.196,0.212,0.991,1.26,0.58,1.25,1.27,0.213
CAL-12T,0.689,0.661,0.563,0.629,0.797,–,–,–,–,0.299,0.34,0.363,0.3,0.999,1.06,0.852,0.918,1.26,–
A-427,0.892,0.888,0.881,0.894,0.896,0.573,0.282,0.18,0.149,1.01,0.883,0.682,0.548,0.899,0.976,1.08,0.965,1.17,0.448
HARA,1.1,1.29,–,1.21,1.07,0.479,0.249,0.15,0.179,0.964,0.739,0.705,0.509,1.2,1.09,–,1.14,1.44,0.334
NCI-H1793,–,–,–,–,–,0.341,0.311,0.125,0.191,0.205,0.183,0.203,0.176,–,–,–,–,–,–
NCI-H1623,–,–,–,–,–,–,–,–,–,0.395,0.361,0.412,0.364,–,–,–,–,–,–
NCI-H2023,0.686,0.429,0.53,0.718,0.685,0.218,0.116,0.0753,0.0615,0.844,0.154,0.106,0.0768,1.13,1.04,0.666,1,1.07,0.162
ABC-1,1.44,1.03,0.809,1.19,1.6,0.578,0.353,0.259,0.157,0.577,0.531,0.533,0.465,0.328,0.281,0.279,0.311,0.31,0.563
IA-LM,0.565,0.804,0.594,0.677,1.12,–,–,–,–,–,–,–,–,0.811,0.91,–,0.977,0.89,–
NCI-H441,0.709,0.719,0.626,0.651,0.946,0.226,0.238,0.129,0.0673,0.447,0.39,0.384,0.242,0.594,0.54,0.458,0.422,1.11,0.192
